Measurements: US8003345B2, “Antioxidant pharmaceutical compound, method for producing polypeptide and method of cure” (Institute of Cell Biophysics Russian Academy of Sciences, priority 2002, dated 2011)

Experiments:
glutamine synthetase = test: Comparative characteristics of peroxiredoxin activators (glutamine synthetase protection against metal-catalyzed oxidative system); format: biochemical; details: 50 μg peroxiredoxin VI, FIG. 11
Experimental: The antioxidant activity was determined from the degree of glutamine synthetase protection against metal-catalyzed oxidative system. The antioxidant effectiveness of thiols was determined in molar concentration, at which 50% protection of glutamine synthetase took place.
For determining the effectiveness of peroxiredoxin activation with dithiothreitol or with dihydrolipoic acid (natural activator), use is made of the ability of peroxiredoxin to protect glutamine synthetase from inactivation caused by the metal-catalyzed oxidative system.
The degree of the peroxiredoxin activity was determined from the protein concentration value, at which 50% preservation of the glutamine synthetase activity was observed.

[1] = test system: tracheal epithelium of rat after application of lipopolysaccharide; test: Inflammation of rat tracheal epithelium caused by lipopolysaccharide (LPS); format: in vivo
Experimental: The therapeutic properties of peroxiredoxin Prx VI in treating the upper respiratory tract of rat immediately after the application of LPS were checked on a group of 4 Wistar line rats weighing 150-200 grams. The application of LPS was carried out in the following manner. The rats were anesthetized with hexenal, and 100 μl of a lipopolysaccharide solution were introduced through a catheter (the lipopolysaccharide concentration was from 10^−9 to 10^−11 mg/ml, the total number of the used animals was 20). After the application of the lipopolysaccharide, the rats were maintained for a definite period of time (1 hour, 3 hours, 6 hours, 7 hours, 9 hours), then narcotized with hexenal (300 mg/kg weight), and a sample of the tracheal epithelial tissue was isolated. For histochemical investigations the isolated sample was placed into a fixing solution containing 2% of formaldehyde and 0.5% of glutaraldehyde. The tissue was dehydrated by sequential routing through ethyl alcohol with increasing concentration (40-100%). The tissue was embedded into LR white resin. The resin was polymerized at room temperature. 0.5 em-thick sections were made on an LKB ultratome (Sweden), using glass knives. The sections were stained with a hematoxylin-eosine and analyzed under a light microscope.
For biochemical investigations we scraped the epithelium with a thin spatula, washed off the scrape with physiological solution and centrifugated at 10000 g for 15 min. The concentration of hydrogen peroxide was by the luminescence method. […] After LPS, application of a solution of a composition based on peroxiredoxin Prx VI into the trachea was carried out. Preliminarily the rats were narcotized by intraperitoneal administration of hexenal (70 mg/kg), the animals were fixed on an operating table, and under visual control with the aid of a binocular lens, through a catheter of 1 mm in diameter, peroxiredoxin solution (20 to 100 μl) was introduced into the trachea. The peroxiredoxin concentration was from 0.5 to 5.0 mg/ml. A 0.9% solution of NaCl was used as the solvent. The application of the solution of the composition was carried out once, immediately after the application of LPS. The application of pure solvent, solutions of serum albumin (10 mg/ml) and of glutathione (10 mM) were used as control.
Histological investigation of the trachea was carried out 24 hrs after the LPS application.

[2] = test system: tracheal epithelium of rat after application of lipopolysaccharide; test: as above; format: in vivo; remark: listed apart in the source
[3] = test system: glutamine synthetase of E.coli; details: DTT/Fe3+/O2 oxidative system, 3 mM activator, 10 min at 37° C.; FIG. 3
Experimental: Comparison of the protector properties of recombinant full-size Prx Vlhum with the protector properties of natural rat Prx VIrat and with the protector properties of N-terminal ΔPrx V1hum in terms of protecting glutamine synthetase of E.coli from inactivation in a model oxidative system in vitro.
For determining the activity of different types of peroxiredoxins, their ability to protect glutamine synthetase from the DTT/Fe^+3/O2 oxidative system is measured. Glutamine synthetase is isolated from cells of the E.coli DH5α strain (Streicher S. L., Tyler B., 1980) and inactivated in the presence of a Fe^3+/O2 oxidative system and a peroxiredoxin activator—in the model oxidative system generating free radicals (Kim K. et al., 1988). […] The residual activity of glutamine synthetase is assessed by adding to the sample 200 μl of a reaction mixture which comprises: ADP, 0.4 mM; glutamine, 150 mM; K—AsO4, 10 mM; NH2OH, 20 mM; MnCl2, 0.4 mM; HEPES, 100 mM, pH 7.4. […] The protector properties of peroxiredoxin for protecting glutamine synthetase of E.coli from inactivation are determined as the ratio of the remaining activity of the enzyme after the inactivation in the presence of different concentrations of peroxiredoxin to the activity of non-inactivated glutamine synthetase.

skin cuts of rats = test: Treating skin wounds (cuts) in rats; format: in vivo, rat; details: in 5 days; 0.5 mg/ml in 0.15 M NaCl, bandages changed once a day; against control; FIG. 10
Experimental: Rats were preliminarily narcotized by intraperitoneal introduction of hexenal (70 mg/kg). The animals were fixed on an operating table, and then 2-3 mm deep and 1 cm long cuts were made in the skin of both paws with the help of a razor blade. Control cuts were irrigated with physiological solution and a bactericidal plaster was applied; in the case of using peroxiredoxin, the wound was irrigated with a solution of recombinant Prx Vlhum or of its fragment ΔPrx Vlhum in 0.15 M NaCl in 0.5 mg/ml concentration, and a gauze bandage soaked with the same solutions was applied. The bandages were changed once a day.

[4] = test system: T-lymphocytes from the spleen of line NRRI rats stimulated with concavalin A; test: Proliferation of concanavalin A-stimulated T-lymphocytes (3H-thymidine inclusion); format: cell-based; details: 0.1-1.0 mg/ml concentration, against cells stimulated only with concavalin A
Experimental: (§1) The cytotoxicity is determined from the influence of recombinant Prx V1hum or of natural rat Prx V1rat on the level of proliferation of line L929 human lymphoblastoma cells and of T-lymphocytes from the spleen of line NRRI rats stimulated with concavalin A.
(§2) Cells of two lines with the concentration of 10^4 cells/ml medium were cultivated in RPMI 1640 containing 5% of bovine fetal serum. The stimulation of T-lymphocytes was carried out with the 0.1 μg/ml concentration of concavalin. In the case of T-lymphocytes the proliferation level was determined from the inclusion of ^3H-thymidine. The number of live line L929 cells was determined in a 96-cell plate with the aid of a Trypan stain, followed by scanning on a Multiscan multichannel photometer (LKB, Sweden).

[5] = Cytotoxicity: number of live line L929 cells; format: cell-based, human; details: 0.1-10 μg/ml concentration; Trypan stain
Experimental: as §1, §2

O=C(O)CCCC[C@@H](S)CCS (racemic) [dihydrolipoic acid]
antioxidant effectiveness of thiols (degree of glutamine synthetase protection) (glutamine synthetase): almost equal to dithiothreitol and substantially surpasses the effectiveness of lipoic acid

N[C@@H](CCC(=O)N[C@@H](CS)C(=O)NCC(=O)O)C(=O)O [Glutathione, glutathione, reference compound]
Integrity of tracheal epithelium (according to histological data) ([1]; Time after the action of LPS: 1 hour): 30%
Integrity of tracheal epithelium (according to histological data) ([1]; Time after the action of LPS: 3 hours): 20%
Integrity of tracheal epithelium (according to histological data) ([1]; Time after the action of LPS: 6 hours): 10%
Integrity of tracheal epithelium (according to histological data) ([2]; Treatment 24 hours later for 5 days and the integrity of epithelium 2 weeks later): 20%
effect on tracheal epithelium after LPS (in words) ([2]; other antioxidants, see Table 2): no significant effect

B1: ΔPrx VIhum: N-terminal fragment of human peroxiredoxin Prx VI (SEQ ID NO: 2), length 177 a.b., molecular mass 19691.61 Da (protein, listed as Homo sapiens)
chain: MPGGLLLGDVAPNFEANTTVGRIRFHDFLGDSWGILFSHPRDFTPVCTTELGRAAKLAPEFAKRNVKLIALSIDSVEDHLAWSKDINAYNCEEPTEKLPFPIIDDRNRELAILLGMLDPAEKDEKGMPVTARVVFVFGPDKKLKLSILYPATTGRNFDEILRVVISLQLTAEKRVATPVDWKDGDSVMVLPTIPEEEAKKLFPKGVFTKELPSGKKYLRYTPQP
protector properties: antioxidant characteristics in protecting glutamine synthetase from inactivation [3]: close to the recombinant full-size Prx Vlhum
healing of the wound (skin cuts of rats): almost complete healing of the wound

B2: Prx VIrat: natural peroxiredoxin isolated from the olfactory epithelium of a Wistar line rat, 223 amino acids (protein, UniProt O35244 2-224, looked up)
Peroxiredoxin-6: PGGLLLGDEAPNFEANTTIGHIRFHDFLGDSWGILFSHPRDFTPVCTTELGRAAKLAPEFAKRNVKLIALSIDSVEDHFAWSKDINAYNGAAPTEKLPFPIIDDKDRDLAILLGMLDPAEKDEKGMPVTARVVFIFGPDKKLKLSILYPATTGRNFDEILRVVDSLQLTASNPVATPVDWKKGESVMVLPTLPEEEAKQLFPKGVFTKELPSGKKYLRYTPQP
cell proliferation level of T-lymphocytes stimulated with concavalin A [4]: increased approximately twofold
effect on the number of live line L929 cells [5]: did not produce any effect
